# Assay results taken from PubChem BioAssay AID1963843 (Molecular Pharmacology Branch, DTP, NCI, 2024).
# Tested on: 616215-338-R-J1-PDC complex spheroid viability
# Assay: Anticancer human tumor 616215-338-R-J1-PDC patient-derived colon adenocarcinoma cell line growth inhibition [POLQ]
# Conditions: for IC50: curve of first compound; for viability, T/C: stronger effect = lower value
# Summary of the method: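 Complex spheroid viability model combining PDC tumour cells with endothelial (HUVEC) and MSC stromal cells. Novobiocin, ART-558 or RP6685 were tested singly and in combination with standard and investigational anticancer drugs. Each was titrated in half-log steps from near clinical Cmax, or from 10 microM where Cmax was unknown.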
# [1] = second compound 0.0316 µM, first compound 0.0316 µM
# [2] = second compound 0.0316 µM, first compound 0.1 µM
# [3] = second compound 0.0316 µM, first compound 0.316 µM
# [4] = second compound 0.0316 µM, first compound 1 µM
# [5] = second compound 0.0316 µM, first compound 3.16 µM
# [6] = second compound 0.0316 µM, first compound 10 µM
# [7] = second compound 0.1 µM, first compound 0.0316 µM
# [8] = second compound 0.1 µM, first compound 0.1 µM
# [9] = second compound 0.1 µM, first compound 0.316 µM
# [10] = second compound 0.1 µM, first compound 1 µM
# [11] = second compound 0.1 µM, first compound 3.16 µM
# [12] = second compound 0.1 µM, first compound 10 µM
# [13] = second compound 0.316 µM, first compound 0.0316 µM
# [14] = second compound 0.316 µM, first compound 0.1 µM
# [15] = second compound 0.316 µM, first compound 0.316 µM
# [16] = second compound 0.316 µM, first compound 1 µM
# [17] = second compound 0.316 µM, first compound 3.16 µM
# [18] = second compound 0.316 µM, first compound 10 µM
# [19] = second compound 1 µM, first compound 0.0316 µM
# [20] = second compound 1 µM, first compound 0.1 µM
# [21] = second compound 1 µM, first compound 0.316 µM
# [22] = second compound 1 µM, first compound 1 µM
# [23] = second compound 1 µM, first compound 3.16 µM
# [24] = second compound 1 µM, first compound 10 µM
# [25] = second compound 3.16 µM, first compound 0.0316 µM
# [26] = second compound 3.16 µM, first compound 0.1 µM
# [27] = second compound 3.16 µM, first compound 0.316 µM
# [28] = second compound 3.16 µM, first compound 1 µM
# [29] = second compound 3.16 µM, first compound 3.16 µM
# [30] = second compound 3.16 µM, first compound 10 µM
# [31] = second compound 10 µM, first compound 0.0316 µM
# [32] = second compound 10 µM, first compound 0.1 µM
# [33] = second compound 10 µM, first compound 0.316 µM
# [34] = second compound 10 µM, first compound 1 µM
# [35] = second compound 10 µM, first compound 3.16 µM
# [36] = second compound 10 µM, first compound 10 µM
# [37] = second compound 0.0316 µM, first compound 0.00316 µM
# [38] = second compound 0.0316 µM, first compound 0.01 µM
# [39] = second compound 0.1 µM, first compound 0.00316 µM
# [40] = second compound 0.1 µM, first compound 0.01 µM
# [41] = second compound 0.316 µM, first compound 0.00316 µM
# [42] = second compound 0.316 µM, first compound 0.01 µM
# [43] = second compound 1 µM, first compound 0.00316 µM
# [44] = second compound 1 µM, first compound 0.01 µM
# [45] = second compound 3.16 µM, first compound 0.00316 µM
# [46] = second compound 3.16 µM, first compound 0.01 µM
# [47] = second compound 10 µM, first compound 0.00316 µM
# [48] = second compound 10 µM, first compound 0.01 µM
# 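Note: spheroids exposed to compounds for one week before readout.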
# 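Throughout, for viability, T/C: percent viability relative to DMSO vehicle wells taken as 100%.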
compound,measurement,setting,value
CCCS(=O)(=O)Nc1ccc(F)c(C(=O)c2c[nH]c3ncc(-c4ccc(Cl)cc4)cc23)c1F + Cc1cccc(N(C)C(=O)C2C(O)CCN2c2nc(C)cc(C(F)(F)F)c2C#N)c1,IC50,second compound 0.0316 µM,5760 nM
same,IC50,second compound 0.1 µM,5710 nM
same,IC50,second compound 0.316 µM,5240 nM
same,IC50,second compound 1 µM,5510 nM
same,IC50,second compound 3.16 µM,5310 nM
same,IC50,second compound 10 µM,4290 nM
same,"viability, T/C",[1],114%
same,"viability, T/C",[2],95.5%
same,"viability, T/C",[3],101%
same,"viability, T/C",[4],105%
same,"viability, T/C",[5],89.5%
same,"viability, T/C",[6],13.4%
same,"viability, T/C",[7],115%
same,"viability, T/C",[8],109%
same,"viability, T/C",[9],101%
same,"viability, T/C",[10],108%
same,"viability, T/C",[11],91%
same,"viability, T/C",[12],11.2%
same,"viability, T/C",[13],112%
same,"viability, T/C",[14],107%
same,"viability, T/C",[15],99%
same,"viability, T/C",[16],97.5%
same,"viability, T/C",[17],83.4%
same,"viability, T/C",[18],9.28%
same,"viability, T/C",[19],99.5%
same,"viability, T/C",[20],101%
same,"viability, T/C",[21],104%
same,"viability, T/C",[22],105%
same,"viability, T/C",[23],86.9%
same,"viability, T/C",[24],10.2%
same,"viability, T/C",[25],114%
same,"viability, T/C",[26],98.6%
same,"viability, T/C",[27],99.4%
same,"viability, T/C",[28],101%
same,"viability, T/C",[29],83.2%
same,"viability, T/C",[30],10%
same,"viability, T/C",[31],105%
same,"viability, T/C",[32],100%
same,"viability, T/C",[33],92.7%
same,"viability, T/C",[34],98.1%
same,"viability, T/C",[35],65.8%
same,"viability, T/C",[36],7.05%
CNCc1ccc(-c2[nH]c3cc(F)cc4c3c2CCNC4=O)cc1 + Cc1cccc(N(C)C(=O)C2C(O)CCN2c2nc(C)cc(C(F)(F)F)c2C#N)c1,IC50,second compound 0.0316 µM,> 10000 nM
same,IC50,second compound 0.1 µM,> 10000 nM
same,IC50,second compound 0.316 µM,> 10000 nM
same,IC50,second compound 1 µM,> 10000 nM
same,IC50,second compound 3.16 µM,> 10000 nM
same,IC50,second compound 10 µM,> 10000 nM
same,"viability, T/C",[1],96.9%
same,"viability, T/C",[2],99.2%
same,"viability, T/C",[3],105%
same,"viability, T/C",[4],105%
same,"viability, T/C",[5],106%
same,"viability, T/C",[6],86.2%
same,"viability, T/C",[7],101%
same,"viability, T/C",[8],97.7%
same,"viability, T/C",[9],95.5%
same,"viability, T/C",[10],101%
same,"viability, T/C",[11],108%
same,"viability, T/C",[12],73.8%
same,"viability, T/C",[13],99.8%
same,"viability, T/C",[14],103%
same,"viability, T/C",[15],96.6%
same,"viability, T/C",[16],105%
same,"viability, T/C",[17],105%
same,"viability, T/C",[18],72.8%
same,"viability, T/C",[19],107%
same,"viability, T/C",[20],108%
same,"viability, T/C",[21],102%
same,"viability, T/C",[22],103%
same,"viability, T/C",[23],112%
same,"viability, T/C",[24],70%
same,"viability, T/C",[25],111%
same,"viability, T/C",[26],109%
same,"viability, T/C",[27],111%
same,"viability, T/C",[28],104%
same,"viability, T/C",[29],102%
same,"viability, T/C",[30],65.4%
same,"viability, T/C",[31],122%
same,"viability, T/C",[32],105%
same,"viability, T/C",[33],109%
same,"viability, T/C",[34],107%
same,"viability, T/C",[35],108%
same,"viability, T/C",[36],74.7%
COc1cccc(OCCCN)c1-c1cc(Nc2cnc(C#N)cn2)n[nH]1 + Cc1cccc(N(C)C(=O)C2C(O)CCN2c2nc(C)cc(C(F)(F)F)c2C#N)c1,IC50,second compound 0.0316 µM,92.9 nM
same,IC50,second compound 0.1 µM,62.2 nM
same,IC50,second compound 0.316 µM,58.3 nM
same,IC50,second compound 1 µM,53.8 nM
same,IC50,second compound 3.16 µM,56.1 nM
same,IC50,second compound 10 µM,37.4 nM
same,"viability, T/C",[37],94.8%
same,"viability, T/C",[38],89.4%
same,"viability, T/C",[1],73.1%
same,"viability, T/C",[2],47.9%
same,"viability, T/C",[3],38.9%
same,"viability, T/C",[4],35.3%
same,"viability, T/C",[39],107%
same,"viability, T/C",[40],97.8%
same,"viability, T/C",[7],57.3%
same,"viability, T/C",[8],47.8%
same,"viability, T/C",[9],34.3%
same,"viability, T/C",[10],29.9%
same,"viability, T/C",[41],99%
same,"viability, T/C",[42],86.1%
same,"viability, T/C",[13],61.7%
same,"viability, T/C",[14],38.3%
same,"viability, T/C",[15],37%
same,"viability, T/C",[16],29.3%
same,"viability, T/C",[43],108%
same,"viability, T/C",[44],89.9%
same,"viability, T/C",[19],56.1%
same,"viability, T/C",[20],41.3%
same,"viability, T/C",[21],35.8%
same,"viability, T/C",[22],26.7%
same,"viability, T/C",[45],86.8%
same,"viability, T/C",[46],82.9%
same,"viability, T/C",[25],60.4%
same,"viability, T/C",[26],38.4%
same,"viability, T/C",[27],43.8%
same,"viability, T/C",[28],29.1%
same,"viability, T/C",[47],104%
same,"viability, T/C",[48],81.3%
same,"viability, T/C",[31],47.5%
same,"viability, T/C",[32],38.3%
same,"viability, T/C",[33],34.7%
same,"viability, T/C",[34],21.2%
Cn1ncnc1[C@H]1c2n[nH]c(=O)c3cc(F)cc(c23)N[C@@H]1c1ccc(F)cc1 + Cc1cccc(N(C)C(=O)C2C(O)CCN2c2nc(C)cc(C(F)(F)F)c2C#N)c1,IC50,second compound 0.0316 µM,> 100 nM
same,IC50,second compound 0.1 µM,> 100 nM
same,IC50,second compound 0.316 µM,> 100 nM
same,IC50,second compound 1 µM,> 100 nM
same,IC50,second compound 3.16 µM,> 100 nM
same,IC50,second compound 10 µM,> 100 nM
same,"viability, T/C","second compound 0.0316 µM, first compound 0.000316 µM",106%
same,"viability, T/C","second compound 0.0316 µM, first compound 0.001 µM",87.5%
same,"viability, T/C",[37],92.1%
same,"viability, T/C",[38],102%
same,"viability, T/C",[1],105%
same,"viability, T/C",[2],99.3%
same,"viability, T/C","second compound 0.1 µM, first compound 0.000316 µM",108%
same,"viability, T/C","second compound 0.1 µM, first compound 0.001 µM",99.5%
same,"viability, T/C",[39],101%
same,"viability, T/C",[40],105%
same,"viability, T/C",[7],108%
same,"viability, T/C",[8],108%
same,"viability, T/C","second compound 0.316 µM, first compound 0.000316 µM",104%
same,"viability, T/C","second compound 0.316 µM, first compound 0.001 µM",104%
same,"viability, T/C",[41],109%
same,"viability, T/C",[42],105%
same,"viability, T/C",[13],110%
same,"viability, T/C",[14],97.3%
same,"viability, T/C","second compound 1 µM, first compound 0.000316 µM",101%
same,"viability, T/C","second compound 1 µM, first compound 0.001 µM",101%
same,"viability, T/C",[43],111%
same,"viability, T/C",[44],106%
same,"viability, T/C",[19],115%
same,"viability, T/C",[20],104%
same,"viability, T/C","second compound 3.16 µM, first compound 0.000316 µM",116%
same,"viability, T/C","second compound 3.16 µM, first compound 0.001 µM",106%
same,"viability, T/C",[45],101%
same,"viability, T/C",[46],109%
same,"viability, T/C",[25],104%
same,"viability, T/C",[26],97.1%
same,"viability, T/C","second compound 10 µM, first compound 0.000316 µM",106%
same,"viability, T/C","second compound 10 µM, first compound 0.001 µM",107%
same,"viability, T/C",[47],111%
same,"viability, T/C",[48],102%
same,"viability, T/C",[31],99.1%
same,"viability, T/C",[32],98.6%
